Data reported in patent US9149038B2, “4-amino-6-(heterocyclic)picolinates and 6-amino-2-(heterocyclic)pyrimidine-4-carboxylates and their use as herbicides” (Dow AgroSciences LLC, priority 2013, dated 2015).
Read-outs that look alike come from different tables or passages of the source.

Columns and labels:
[1] = test system: Key Grass and Sedge Weeds as well as Grass Crops; test: Post-Emergent Test II: postemergent herbicidal activity, visual rating after 14 d (Table 8); type: in vivo; conditions: post-emergence, 336 h; for pest or weed control at 35 g/ha: 35 g ai/ha; for pest or weed control at 70 g/ha: 70 g ai/ha; for pest or weed control at 140 g/ha: 140 g ai/ha
Procedure, shortened: (§1)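 Greenhouse-grown plants at the first or second true leaf stage (7-21 d, ~15 h photoperiod, 23-29° C day) were sprayed with compound in acetone/DMSO-based aqueous spray containing crop oil concentrate and Triton X-155 at 187 L/ha. Injury versus untreated plants was rated visually after 14 d on a 0-100 scale.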

[2] = test system: Key Broadleaf Weed and Crop Species; test: Post-Emergent Test II: postemergent herbicidal activity, visual rating after 14 d (Table 7); type: in vivo; conditions: post-emergence, 336 h; for pest or weed control at 35 g/ha: 35 g ai/ha; for pest or weed control at 70 g/ha: 70 g ai/ha; for pest or weed control at 140 g/ha: 140 g ai/ha
Procedure, shortened: as §1

[3] = barnyardgrass (Echinochloa crus-galli), read-out: Visual Growth Reduction (%) 14 Days After Application ECHCG
[4] = giant foxtail (Setaria faberi), read-out: Visual Growth Reduction (%) 14 Days After Application SETFA
[5] = maize, corn (Zea mays), read-out: Visual Growth Reduction (%) 14 Days After Application ZEAMX
[6] = rice (Oryza sativa), read-out: Visual Growth Reduction (%) 14 Days After Application ORYSA
[7] = wheat, spring (Triticum aestivum), read-out: Visual Growth Reduction (%) 14 Days After Application TRZAS
[8] = yellow nutsedge (Cyperus esculentus), read-out: Visual Growth Reduction (%) 14 Days After Application CYPES
[9] = lambsquarters (Chenopodium album), read-out: Visual Growth Reduction (%) 14 Days After Application CHEAL
[10] = oilseed rape, canola (Brassica napus), read-out: Visual Growth Reduction (%) 14 Days After Application BRSNN
[11] = redroot pigweed (Amaranthus retroflexus), read-out: Visual Growth Reduction (%) 14 Days After Application AMARE
[12] = sunflower (Helianthus annuus), read-out: Visual Growth Reduction (%) 14 Days After Application HELAN
[13] = velvetleaf (Abutilon theophrasti), read-out: Visual Growth Reduction (%) 14 Days After Application ABUTH
[14] = wild poinsettia (Euphorbia heterophylla), read-out: Visual Growth Reduction (%) 14 Days After Application EPHHL

Work on `C=Cc1c(C(=O)O)nc(-c2ccc3c(c2)OC(F)(F)O3)c(F)c1N` [Compound 30] yielded a pest or weed control at 35 g/ha [1, 3] of 75 to 84%, a pest or weed control at 70 g/ha [1, 3] of 75 to 84% and a pest or weed control at 140 g/ha [1, 3] of 75 to 84%. It also gave a pest or weed control at 35 g/ha [1, 4] of 0 to 29%, a pest or weed control at 70 g/ha [1, 4] of 0 to 29% and a pest or weed control at 140 g/ha [1, 4] of 0 to 29%. For the same compound, the pest or weed control at 35 g/ha [1, 5] was 45 to 59%, the pest or weed control at 70 g/ha [1, 5] was 60 to 74% and the pest or weed control at 140 g/ha [1, 5] was 75 to 84%. It also gave a pest or weed control at 35 g/ha [1, 6] of 0 to 29%, a pest or weed control at 70 g/ha [1, 6] of 0 to 29% and a pest or weed control at 140 g/ha [1, 6] of 0 to 29%. It also gave a pest or weed control at 35 g/ha [1, 7] of 0 to 29%, a pest or weed control at 70 g/ha [1, 7] of 0 to 29% and a pest or weed control at 140 g/ha [1, 7] of 0 to 29%. It also gave a pest or weed control at 35 g/ha [1, 8] of 0 to 29%, a pest or weed control at 70 g/ha [1, 8] of 95 to 100% and a pest or weed control at 140 g/ha [1, 8] of 95 to 100%. The pest or weed control at 35 g/ha [2, 9] was 0 to 29%, the pest or weed control at 70 g/ha [2, 9] was 0 to 29% and the pest or weed control at 140 g/ha [2, 9] was 0 to 29%. It also gave a pest or weed control at 35 g/ha [2, 10] of 45 to 59%, a pest or weed control at 70 g/ha [2, 10] of 60 to 74% and a pest or weed control at 140 g/ha [2, 10] of 75 to 84%. For the same compound, the pest or weed control at 35 g/ha [2, 11] was 0 to 29%, the pest or weed control at 70 g/ha [2, 11] was 0 to 29% and the pest or weed control at 140 g/ha [2, 11] was 0 to 29%. The pest or weed control at 35 g/ha [2, 12] was 0 to 29%, the pest or weed control at 70 g/ha [2, 12] was 0 to 29% and the pest or weed control at 140 g/ha [2, 12] was 85 to 94%. It also gave a pest or weed control at 35 g/ha [2, 13] of 45 to 59%, a pest or weed control at 70 g/ha [2, 13] of 75 to 84% and a pest or weed control at 140 g/ha [2, 13] of 75 to 84%. It also gave a pest or weed control at 35 g/ha [2, 14] of 60 to 74%, a pest or weed control at 70 g/ha [2, 14] of 75 to 84% and a pest or weed control at 140 g/ha [2, 14] of 85 to 94%.
Compound `COC(=O)c1nc(-c2cc3c(cc2F)OCO3)c(F)c(N)c1OC` [Compound 26] has a pest or weed control at 35 g/ha [1, 3] of 45 to 59%, a pest or weed control at 70 g/ha [1, 3] of 60 to 74% and a pest or weed control at 140 g/ha [1, 3] of 75 to 84%. It also gave a pest or weed control at 35 g/ha [1, 4] of 0 to 29%, a pest or weed control at 70 g/ha [1, 4] of 0 to 29% and a pest or weed control at 140 g/ha [1, 4] of 0 to 29%. It also gave a pest or weed control at 35 g/ha [1, 5] of 45 to 59%, a pest or weed control at 70 g/ha [1, 5] of 45 to 59% and a pest or weed control at 140 g/ha [1, 5] of 60 to 74%. For the same compound, the pest or weed control at 35 g/ha [1, 6] was 0 to 29%, the pest or weed control at 70 g/ha [1, 6] was 0 to 29% and the pest or weed control at 140 g/ha [1, 6] was 0 to 29%. For the same compound, the pest or weed control at 35 g/ha [1, 7] was 0 to 29%, the pest or weed control at 70 g/ha [1, 7] was 0 to 29% and the pest or weed control at 140 g/ha [1, 7] was 0 to 29%. For the same compound, the pest or weed control at 35 g/ha [1, 8] was 0 to 29%, the pest or weed control at 70 g/ha [1, 8] was 0 to 29% and the pest or weed control at 140 g/ha [1, 8] was 0 to 29%. For the same compound, the pest or weed control at 35 g/ha [2, 9] was 0 to 29%, the pest or weed control at 70 g/ha [2, 9] was 0 to 29% and the pest or weed control at 140 g/ha [2, 9] was 0 to 29%. The pest or weed control at 35 g/ha [2, 10] was 45 to 59%, the pest or weed control at 70 g/ha [2, 10] was 60 to 74% and the pest or weed control at 140 g/ha [2, 10] was 75 to 84%. For the same compound, the pest or weed control at 35 g/ha [2, 11] was 0 to 29%, the pest or weed control at 70 g/ha [2, 11] was 0 to 29% and the pest or weed control at 140 g/ha [2, 11] was 85 to 94%. For the same compound, the pest or weed control at 35 g/ha [2, 12] was 85 to 94%, the pest or weed control at 70 g/ha [2, 12] was 95 to 100% and the pest or weed control at 140 g/ha [2, 12] was 95 to 100%. It also gave a pest or weed control at 35 g/ha [2, 13] of 0 to 29%, a pest or weed control at 70 g/ha [2, 13] of 0 to 29% and a pest or weed control at 140 g/ha [2, 13] of 0 to 29%. For the same compound, the pest or weed control at 35 g/ha [2, 14] was 95 to 100%, the pest or weed control at 70 g/ha [2, 14] was 95 to 100% and the pest or weed control at 140 g/ha [2, 14] was 95 to 100%.
